Test results taken from ChEMBL document CHEMBL5727633, “Therapeutic compounds” (2020).

Assays:
CREB-binding protein = CREB-binding protein (Homo sapiens, UniProt Q92793); assay: In Vitro CBP Inhibition: The CBP-inhibitory activity of the compounds described herein was determined by calculating the IC50. More specifically, CBP inhibitor activity was assayed as follows: CBP was cloned and expressed in E. coli as His-tag protein and purified by Nickel affinity and gel-filtration chromatography. […] CBP binding and inhibition is assessed by monitoring the interaction of biotinylated H4-tetraacetyl peptide (AnaSpec, H4K5/8/12/16(Ac), biotin-labeled) with the target using the AlphaScreen technology (Perkin Elmer). In a 384-well ProxiPlate CBP (50 nM final) was combined with peptide (20 nM final) in 50 mM HEPES (pH 7.3), 10 mM NaCl, 0.25 mM TCEP, 0.1% (w/v) BSA, and 0.005% (w/v) Brij-35 either in the presence of DMSO (final 0.4% DMSO) or compound dilution series in DMSO. After 20 min incubation at room temp, Alpha-streptavidin donor beads and Nickel Chelate acceptor beads were added to a final concentration of 5 μg/mL.
CREB-binding protein, sequence (Q92793 whole entry): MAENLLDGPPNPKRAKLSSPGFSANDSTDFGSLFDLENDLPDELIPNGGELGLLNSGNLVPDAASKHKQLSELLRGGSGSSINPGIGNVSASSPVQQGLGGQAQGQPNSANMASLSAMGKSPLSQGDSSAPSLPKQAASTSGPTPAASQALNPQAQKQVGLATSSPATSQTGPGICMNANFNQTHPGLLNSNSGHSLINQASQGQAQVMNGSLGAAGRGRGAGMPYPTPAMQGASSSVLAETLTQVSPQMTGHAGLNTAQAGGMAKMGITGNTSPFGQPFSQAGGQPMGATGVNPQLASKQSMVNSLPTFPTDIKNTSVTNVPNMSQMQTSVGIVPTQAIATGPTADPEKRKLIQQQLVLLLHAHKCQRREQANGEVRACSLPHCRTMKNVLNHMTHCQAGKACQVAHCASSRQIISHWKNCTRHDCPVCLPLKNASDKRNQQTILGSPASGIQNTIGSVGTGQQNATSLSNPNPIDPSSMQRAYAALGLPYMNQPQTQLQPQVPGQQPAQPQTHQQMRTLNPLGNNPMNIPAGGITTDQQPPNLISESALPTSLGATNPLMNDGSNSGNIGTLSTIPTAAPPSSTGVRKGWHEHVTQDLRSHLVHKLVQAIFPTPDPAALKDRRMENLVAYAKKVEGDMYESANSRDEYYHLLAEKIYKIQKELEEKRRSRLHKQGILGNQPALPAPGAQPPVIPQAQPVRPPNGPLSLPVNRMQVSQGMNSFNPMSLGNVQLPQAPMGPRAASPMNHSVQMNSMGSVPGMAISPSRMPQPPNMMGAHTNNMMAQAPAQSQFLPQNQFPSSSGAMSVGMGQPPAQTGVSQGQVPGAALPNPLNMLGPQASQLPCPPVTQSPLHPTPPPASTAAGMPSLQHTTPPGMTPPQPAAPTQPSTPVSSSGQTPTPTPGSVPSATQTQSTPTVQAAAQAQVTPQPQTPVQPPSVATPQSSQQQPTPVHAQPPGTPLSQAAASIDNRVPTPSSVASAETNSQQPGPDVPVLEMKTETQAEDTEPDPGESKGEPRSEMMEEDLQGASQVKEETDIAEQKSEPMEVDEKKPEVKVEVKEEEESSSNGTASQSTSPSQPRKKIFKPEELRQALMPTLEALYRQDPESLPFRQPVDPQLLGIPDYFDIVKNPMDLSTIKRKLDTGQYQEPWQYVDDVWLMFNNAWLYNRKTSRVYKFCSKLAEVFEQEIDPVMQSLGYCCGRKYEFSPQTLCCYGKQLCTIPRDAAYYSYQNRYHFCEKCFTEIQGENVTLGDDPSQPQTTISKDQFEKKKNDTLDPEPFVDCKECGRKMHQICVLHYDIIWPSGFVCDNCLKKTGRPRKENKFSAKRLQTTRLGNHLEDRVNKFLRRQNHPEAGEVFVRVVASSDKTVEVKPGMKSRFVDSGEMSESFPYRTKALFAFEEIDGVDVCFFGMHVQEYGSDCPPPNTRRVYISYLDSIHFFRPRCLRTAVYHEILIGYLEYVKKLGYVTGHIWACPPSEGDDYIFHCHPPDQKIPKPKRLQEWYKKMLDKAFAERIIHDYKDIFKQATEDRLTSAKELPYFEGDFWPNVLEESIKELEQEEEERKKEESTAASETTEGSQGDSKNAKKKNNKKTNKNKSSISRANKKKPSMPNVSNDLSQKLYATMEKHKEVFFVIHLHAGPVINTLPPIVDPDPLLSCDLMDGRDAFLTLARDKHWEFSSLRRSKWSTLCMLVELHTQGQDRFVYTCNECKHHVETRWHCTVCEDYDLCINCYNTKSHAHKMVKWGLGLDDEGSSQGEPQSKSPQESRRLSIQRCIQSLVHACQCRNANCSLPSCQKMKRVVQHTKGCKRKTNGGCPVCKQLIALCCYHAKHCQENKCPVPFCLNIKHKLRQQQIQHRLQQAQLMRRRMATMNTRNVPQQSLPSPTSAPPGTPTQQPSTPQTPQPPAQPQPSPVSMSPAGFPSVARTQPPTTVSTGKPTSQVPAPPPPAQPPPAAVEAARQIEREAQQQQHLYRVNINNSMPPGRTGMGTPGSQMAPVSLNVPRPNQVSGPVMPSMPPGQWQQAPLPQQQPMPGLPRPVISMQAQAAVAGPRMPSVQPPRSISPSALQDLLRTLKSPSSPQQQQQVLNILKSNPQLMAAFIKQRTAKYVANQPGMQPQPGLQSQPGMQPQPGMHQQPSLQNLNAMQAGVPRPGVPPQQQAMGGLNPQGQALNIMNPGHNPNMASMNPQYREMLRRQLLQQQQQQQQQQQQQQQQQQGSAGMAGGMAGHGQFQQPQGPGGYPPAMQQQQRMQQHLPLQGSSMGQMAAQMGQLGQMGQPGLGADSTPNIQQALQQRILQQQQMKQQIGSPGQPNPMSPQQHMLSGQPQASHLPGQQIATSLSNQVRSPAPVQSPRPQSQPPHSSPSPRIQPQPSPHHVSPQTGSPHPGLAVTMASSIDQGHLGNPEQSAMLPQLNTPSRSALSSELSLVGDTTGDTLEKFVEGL

[1] = molecular target: Bromodomain-containing protein 4 (Homo sapiens, UniProt O60885); assay: In Vitro Enzyme Inhibition Assay-BRD4 Inhibition: Inhibition of BRD4 was determined as described previously. See, e.g., U.S. Pat. No. 9,034,900.

| Structure (SMILES) | IC50 (CREB-binding protein) [nM] | IC50 [1] [µM] |
| --- | --- | --- |
| COc1ccc(-c2cc(=O)n(C)cc2-c2cnn(-c3ccccc3C#N)c2)cc1 | < 500 | – |
| Cn1cc(COc2cc(=O)n(C)cc2-c2cnn(-c3ccccc3Cl)c2)cn1 | < 500 | – |
| Cn1cc(-c2cnn(-c3ccccc3C(=O)O)c2)c(-c2ccc(Cl)cc2)cc1=O | < 500 | – |
| Cn1cc(-c2cnn(Cc3ccccc3)c2)c(-c2cccc(Cl)c2)cc1=O | < 500 | – |
| Cn1cc(-c2cnn(CC3CCCCC3)c2)c(-c2ccccc2)cc1=O | < 500 | – |
| COc1ccc(-c2cc(=O)n(C)cc2-c2cnn(-c3ccccc3C(=O)O)c2)cc1 | < 500 | – |
| Cn1cc(-c2cnn(-c3ccccc3-c3nnn[nH]3)c2)c(-c2ccc(F)cc2)cc1=O | < 500 | – |
| COc1ccc(C#N)c(-n2cc(-c3cn(C)c(=O)cc3-c3ccc(Cl)cc3)cn2)c1 | < 500 | – |
| Cn1cc(-c2cnn(Cc3ccccc3)c2)c(-c2cnn(CC(=O)O)c2)cc1=O | < 500 | – |
| Cn1cc(-c2cnn(CC3CC3)c2)c(-c2ccc(C(F)(F)F)cc2)cc1=O | < 500 | – |
| CNC(=O)Cn1cc(-c2cn(C)c(=O)cc2-c2ccccc2)cn1 | < 500 | – |
| COc1cc(-c2cc(=O)n(C)cc2-c2cnn(-c3ccccc3C(=O)NC#N)c2)ccn1 | < 500 | – |
| Cn1cc(-c2cnn(CC3CC3)c2)c(-c2ccc(C(=O)O)cc2)cc1=O | < 500 | > 5 |
| COc1ccccc1-c1cc(=O)n(C)cc1-c1cnn(Cc2ccccc2)c1 | > 5000 | – |
| CCOc1cc(=O)n(C)cc1-c1cnn(C(C)c2cccc(-c3cnn(C)c3)c2)c1 (configuration not stated) | < 500 | – |
| CNC(=O)c1ccc(-c2cc(=O)n(C)cc2-c2cnn(CC3CC3)c2)cc1 | < 500 | – |
| COc1ccc(-c2cc(=O)n(C)cc2-c2cnn(-c3ccccc3C(=O)NC#N)c2)cn1 | < 500 | – |
| Cc1cc(-c2cnn(C(c3ccccc3)C3CC3)c2)cn(C)c1=O (configuration not stated) | < 500 | – |
| Cn1ccc(-c2cc(=O)n(C)cc2-c2cnn(-c3cccc(F)c3C#N)c2)cc1=O | < 500 | – |
| COc1ccc(C(=O)O)c(-n2cc(-c3cn(C)c(=O)cc3-c3ccc(Cl)cc3)cn2)c1 | < 500 | – |
| Cn1cc(-c2cnn(Cc3ccccc3)c2)c(-c2ccc(Cl)cc2)cc1=O | < 500 | – |
